Experimental findings from patent publication US20250129104A1, “7H-PYRROLO[2,3-D]PYRIMIDINES AND PREPARATION AND USES THEREOF” (BioSplice Therapeutics, Inc., priority 2021, published 2025) are described below.

What is called EC50 is the concentration that produces a half-maximal response.

In this assay the target is recombinant DYRK1A kinase (Homo sapiens (Human), UniProt Q13627). In words: DYRK1A kinase assay (Ser/Thr 18 peptide Z-lyte FRET assay). It counts as biochemical. Particulars: DYRK1A kinase activity; 15 μM ATP, 1 h room temperature; method text calls the value IC50. The protocol:
Representative compounds were screened using the assay procedure for DYRK1A kinase activity as described below.
Each compound was dissolved in DMSO as a 10 mM stock and used to prepare compound source plates. Serial dilution (1:3, 11-point dose-response curves from 10 μM to 0.00016 μM) and compound transfer was performed using the ECHO 550 (Labcyte, Sunnyvale, CA) into 1536-well black-walled round bottom plates (Corning).
The DYRK1A kinase assay was run using the Ser/Thr 18 peptide Z-lyte assay kit according to manufacturer's instructions (Life Technologies—a Division of Thermo-Fisher). This is a non-radioactive assay using fluorescence resonance energy transfer (FRET) between coumarin and fluorescein to detect kinase activity which is represented as a ratio of coumarin emission/fluorescein emission.
Briefly, recombinant DYRK1A kinase, ATP and Ser/Thr peptide 18 were prepared in 1× Kinase buffer to final concentrations of 0.25 μg/mL, 15 μM, and 4 μM respectively. The mixture was allowed to incubate with the representative compounds for one hour at room temperature. All reactions were performed in duplicate. Unphosphorylated (“0% Control”) and phosphorylated (“100% control”) forms of Ser/Thr 18 served as control reactions. Additionally, an 11-point dose-response curve of Staurosporine (1 uM top) was run to serve as a positive compound control.
After incubation, Development Reagent A was diluted in Development Buffer then added to the reaction and allowed to further incubate for one hour at room temperature. The plate was read at Ex 400 Em […] to detect the coumarin signal and Ex 400 Em 520 to measure the signal (EnVision Multilabel Plate Reader, PerkinElmer).
The Emission ratio (Em) was calculated as a ratio of the coumarin (C) emission signal (at 445 nm)/Fluorescein (F) emission signal (at 520 nm). The percent phosphorylation was then calculated using the following formula: [1−((Em ratio×F100%)−C100%)/((C0%−C100%)+(Em ratio×(F100%−F0%)))]. Dose-response curves were generated, and inhibitory concentration (IC50) values were calculated using non-linear regression curve fit in the Dotmatics' Studies Software (Bishops Stortford, UK).

In the case of `Fc1cc(-c2c[nH]c3nc(C4CC4)ncc23)cn2c(C(F)F)cnc12` [Compound 359, 2-Cyclopropyl-5-(3-(difluoromethyl)-8-fluoroimidazo[1,2-a]pyridin-6-yl)-7H-pyrrolo[2,3-d]pyrimidine], the EC50 turned out to be 115 nM.
For `OCc1cnc2c(F)cc(-c3c[nH]c4nc(C5CC5)ncc34)cn12` [Compound 363, (6-(2-Cyclopropyl-7H-pyrrolo[2,3-d]pyrimidin-5-yl)-8-fluoroimidazo[1,2-a]pyridin-3-yl)methanol], the EC50 amounted to 41.6 nM.
`CN1CCC(c2cnc3c(F)cc(-c4c[nH]c5nc(C6CC6)ncc45)cn23)CC1` [Compound 403, 2-Cyclopropyl-5-(8-fluoro-3-(1-methylpiperidin-4-yl)imidazo[1,2-a]pyridin-6-yl)-7H-pyrrolo[2,3-d]pyrimidine]: the concentration giving a half-maximal response (EC50) amounted to 174 nM.
Turning to `C[C@H](Nc1ncc2c(-c3cnc4nccn4c3)c[nH]c2n1)C(F)(F)F` [Compound 464, (S)-5-(Imidazo[1,2-a]pyrimidin-6-yl)-N-(1,1,1-trifluoropropan-2-yl)-7H-pyrrolo[2,3-d]pyrimidin-2-amine], the concentration for a half-maximal effect (EC50) came out at 9.5 nM.
For the compound `CC(C)(C)Cc1ncc2c(-c3cnc4nccn4c3)c[nH]c2n1` [Compound 490, 5-(Imidazo[1,2-a]pyrimidin-6-yl)-2-neopentyl-7H-pyrrolo[2,3-d]pyrimidine], the EC50 is 153 nM.
On to `Cn1cc2cc(-c3c[nH]c4nc(NCC(C)(C)F)ncc34)ccc2n1` [Compound 492, N-(2-Fluoro-2-methylpropyl)-5-(2-methyl-2H-indazol-5-yl)-7H-pyrrolo[2,3-d]pyrimidin-2-amine], for which the concentration giving a half-maximal response (EC50) stood at 123 nM.
As to `Cc1nc2c(F)cc(-c3c[nH]c4nc(NCC5CN(C)C5)ncc34)cc2n1C` [Compound 493, 5-(4-Fluoro-1,2-dimethyl-1H-benzo[d]imidazol-6-yl)-N-((1-methylazetidin-3-yl)methyl)-7H-pyrrolo[2,3-d]pyrimidin-2-amine], the 50% effective concentration (EC50) was determined as 4700 nM.
In the case of `Cc1nc2c(F)cc(-c3c[nH]c4nc(N5CCC5)ncc34)cc2n1C(C)C` [Compound 494, 2-(Azetidin-1-yl)-5-(4-fluoro-1-isopropyl-2-methyl-1H-benzo[d]imidazol-6-yl)-7H-pyrrolo[2,3-d]pyrimidine], the EC50 came to 227 nM.
The same measure for `Cc1nc2c(F)cc(-c3c[nH]c4nc(NCC(C)C)ncc34)cc2n1C(C)C` [Compound 506, 5-(4-Fluoro-1-isopropyl-2-methyl-1H-benzo[d]imidazol-6-yl)-N-isobutyl-7H-pyrrolo[2,3-d]pyrimidin-2-amine]: 1.7 nM; for `Cc1nc2c(F)cc(-c3c[nH]c4nc(NCC5(F)CCCCC5)ncc34)cc2n1C(C)C` [Compound 526, 5-(4-Fluoro-1-isopropyl-2-methyl-1H-benzo[d]imidazol-6-yl)-N-((1-fluorocyclohexyl)methyl)-7H-pyrrolo[2,3-d]pyrimidin-2-amine]: 8.5 nM.
As for `Cc1nc2c(F)cc(-c3c[nH]c4nc(NCC5CCN(C)CC5)ncc34)cc2n1C(C)C` [Compound 529, 5-(4-Fluoro-1-isopropyl-2-methyl-1H-benzo[d]imidazol-6-yl)-N-((1-methylpiperidin-4-yl)methyl)-7H-pyrrolo[2,3-d]pyrimidin-2-a], the EC50 was determined as 9.3 nM.
`Cc1nc2cc(F)c(-c3c[nH]c4nc(C5CC5)ncc34)cc2n1C(C)C` [Compound 539, 2-Cyclopropyl-5-(5-fluoro-1-isopropyl-2-methyl-1H-benzo[d]imidazol-6-yl)-7H-pyrrolo[2,3-d]pyrimidine]: the concentration for a half-maximal effect (EC50) was determined as 40.8 nM.
With `Cc1nc2ccc(-c3c[nH]c4nc(C5CC5)ncc34)c(F)c2n1C(C)C` [Compound 540, 2-Cyclopropyl-5-(7-fluoro-1-isopropyl-2-methyl-1H-benzo[d]imidazol-6-yl)-7H-pyrrolo[2,3-d]pyrimidine], the half-maximal effective concentration (EC50) came to 25.5 nM.
Take `Cc1nc2ncc(-c3c[nH]c4nc(CC(C)C)ncc34)cc2n1C(C)C` [Compound 585, 6-(2-Isobutyl-7H-pyrrolo[2,3-d]pyrimidin-5-yl)-1-isopropyl-2-methyl-1H-imidazo[4,5-b]pyridine]: the EC50 came to 17.9 nM.
On to `Cc1nc2ncc(-c3c[nH]c4nc(NCC(C)C)ncc34)cc2n1C(C)C` [Compound 594, N-Isobutyl-5-(1-isopropyl-2-methyl-1H-imidazo[4,5-b]pyridin-6-yl)-7H-pyrrolo[2,3-d]pyrimidin-2-amine], for which the 50% effective concentration (EC50) came out at 5.6 nM.
As for `Cc1nc2cnc(-c3c[nH]c4ncncc34)cc2n1C(C)C` [Compound 627, 1-Isopropyl-2-methyl-6-(7H-pyrrolo[2,3-d]pyrimidin-5-yl)-1H-imidazo[4,5-c]pyridine], the EC50 worked out at 71.3 nM.
Consider `Cc1nc2cnc(-c3c[nH]c4nc(C5CCC5)ncc34)cc2n1C(C)C` [Compound 628, 6-(2-Cyclobutyl-7H-pyrrolo[2,3-d]pyrimidin-5-yl)-1-isopropyl-2-methyl-1H-imidazo[4,5-c]pyridine], for which the EC50 amounted to 789 nM.
Take `Cc1nc2ccc(-c3c[nH]c4nc(NCC(C)(C)F)ncc34)nc2n1CC(F)F` [Compound 643, 5-(3-(2,2-Difluoroethyl)-2-methyl-3H-imidazo[4,5-b]pyridin-5-yl)-N-(2-fluoro-2-methylpropyl)-7H-pyrrolo[2,3-d]pyrimidin-2-amine]: the EC50 is 42.8 nM.
As for `Cc1nc2ccc(-c3c[nH]c4nc(C5CC5)ncc34)nc2n1C(C)C` [Compound 676, 5-(2-Cyclopropyl-7H-pyrrolo[2,3-d]pyrimidin-5-yl)-3-isopropyl-2-methyl-3H-imidazo[4,5-b]pyridine], the concentration for a half-maximal effect (EC50) worked out at 1.5 nM.
On to `CC(C)(C)Nc1ncc2c(-c3ccc4ncnn4c3)c[nH]c2n1` [Compound 718, 5-([1,2,4]Triazolo[1,5-a]pyridin-6-yl)-N-(tert-butyl)-7H-pyrrolo[2,3-d]pyrimidin-2-amine], for which the EC50 worked out at 415 nM.
For `c1nc2ccc(-c3c[nH]c4nc(C5CC5)ncc34)cn2n1` [Compound 720, 6-(2-Cyclopropyl-7H-pyrrolo[2,3-d]pyrimidin-5-yl)-[1,2,4]triazolo[1,5-a]pyridine], the EC50 is 200 nM.
Turning to `c1nc2ccc(-c3c[nH]c4nc(C5CCC5)ncc34)cn2n1` [Compound 721, 6-(2-Cyclobutyl-7H-pyrrolo[2,3-d]pyrimidin-5-yl)-[1,2,4]triazolo[1,5-a]pyridine], the EC50 stood at 852 nM.
Turning to `CC(C)(C)CNc1ncc2c(-c3ccc4ncnn4c3)c[nH]c2n1` [Compound 728, 5-([1,2,4]Triazolo[1,5-a]pyridin-6-yl)-N-neopentyl-7H-pyrrolo[2,3-d]pyrimidin-2-amine], the concentration for a half-maximal effect (EC50) was 48.1 nM.
As to `FC(F)(F)CNc1ncc2c(-c3ccc4ncnn4c3)c[nH]c2n1` [Compound 733, 5-([1,2,4]Triazolo[1,5-a]pyridin-6-yl)-N-(2,2,2-trifluoroethyl)-7H-pyrrolo [2,3-d]pyrimidin-2-amine], the concentration giving a half-maximal response (EC50) was determined as 23 nM.
The same measure for `C[C@H](Nc1ncc2c(-c3ccc4ncnn4c3)c[nH]c2n1)C(F)(F)F` [Compound 735, (S)-5-([1,2,4]Triazolo[1,5-a]pyridin-6-yl)-N-(1,1,1-trifluoropropan-2-yl)-7H-pyrrolo[2,3-d]pyrimidin-2-amine]: 78.7 nM; for `FC(F)(F)CCNc1ncc2c(-c3ccc4ncnn4c3)c[nH]c2n1` [Compound 736, 5-([1,2,4]Triazolo[1,5-a]pyridin-6-yl)-N-(3,3,3-trifluoropropyl)-7H-pyrrolo [2,3-d]pyrimidin-2-amine]: 45.8 nM.
Turning to `FC(F)(CNc1ncc2c(-c3ccc4ncnn4c3)c[nH]c2n1)C1CC1` [Compound 743, 5-([1,2,4]Triazolo[1,5-a]pyridin-6-yl)-N-(2-cyclopropyl-2,2-difluoroethyl)-7H-pyrrolo[2,3-d]pyrimidin-2-amine], the EC50 came to 1.9 nM.
Regarding `CN1CCN(c2cc(Nc3ncc4c(-c5ccc6ncnn6c5)c[nH]c4n3)ccn2)CC1` [Compound 755, 5-([1,2,4]Triazolo[1,5-a]pyridin-6-yl)-N-(2-(4-methylpiperazin-1-yl)pyridin-4-yl)-7H-pyrrolo[2,3-d]pyrimidin-2-amine], the EC50 was 4.5 nM.
For the compound `CC(C)(F)CNc1ncc2c(-c3cc(F)c4ncnn4c3)c[nH]c2n1` [Compound 774, N-(2-Fluoro-2-methylpropyl)-5-(8-fluoro-[1,2,4]triazolo[1,5-a]pyridin-6-yl)-7H-pyrrolo[2,3-d]pyrimidin-2-amine], the EC50 is 76.3 nM.
For the compound `CC(C)Nc1ncc2c(-c3ccn4ncnc4c3)c[nH]c2n1` [Compound 804, 5-([1,2,4]Triazolo[1,5-a]pyridin-7-yl)-N-isopropyl-7H-pyrrolo[2,3-d]pyrimidin-2-amine], the concentration giving a half-maximal response (EC50) worked out at 72.1 nM.
For the compound `C[C@@H](Nc1ncc2c(-c3ccn4ncnc4c3)c[nH]c2n1)C(F)(F)F` [Compound 806, (R)-5-([1,2,4]Triazolo[1,5-a]pyridin-7-yl)-N-(1,1,1-trifluoropropan-2-yl)-7H-pyrrolo[2,3-d]pyrimidin-2-amine], the 50% effective concentration (EC50) was found to be 18.8 nM.
